# Active and inactive are the calls of the source. The calls are words filed in the database; no cut-off is given here.
# Tests used:
# [1] = system: Blood; assay: Antiinflammatory activity in rat whole blood assessed as inhibition of LPS-induced TNFalpha release treated for 45 mins before LPS challenge measured after 6 hrs by ELISA; type: functional, tissue-based
# [2] = Protein binding in human serum; type: ADME, cell-free; details: read-out: PB (converted)
# [3] = Protein binding in mouse serum; type: ADME, cell-free; details: read-out: PB (converted)
# [4] = Protein binding in rat serum; type: ADME, cell-free; details: read-out: PB (converted)
# [5] = Cmax in Lewis rat at 10 mg/kg, po; type: ADME, organism-based; set-up: dose 10 mg/kg, route oral; details: in vivo
# [6] = Cmax in dog at 5 mg/kg, po; type: ADME, organism-based, Canis lupus familiaris; set-up: dose 5 mg/kg, route oral; details: in vivo
# [7] = AUC in dog at 5 mg/kg, po; type: ADME, organism-based, Canis lupus familiaris; set-up: dose 5 mg/kg, route oral; details: plasma
# [8] = Half life in Lewis rat at 2 mg/kg, iv; type: ADME, organism-based; set-up: dose 2 mg/kg, route intravenous; details: in vivo
# [9] = Half life in mouse at 2 mg/kg, iv; type: ADME, organism-based; set-up: dose 2 mg/kg, route intravenous; details: in vivo
# [10] = Half life in dog at 1 mg/kg, iv; type: ADME, organism-based, Canis lupus familiaris; set-up: dose 1 mg/kg, route intravenous; details: in vivo
# [11] = Clearance in Lewis rat at 2 mg/kg, iv; type: ADME, organism-based; set-up: dose 2 mg/kg, route intravenous; details: in vivo
# [12] = Clearance in dog at 1 mg/kg, iv; type: ADME, organism-based, Canis lupus familiaris; set-up: dose 1 mg/kg, route intravenous; details: in vivo
# [13] = Volume of distribution at steady state in Lewis rat at 2 mg/kg, iv; type: ADME, organism-based; set-up: dose 2 mg/kg, route intravenous; details: in vivo, read-out: Vdss
# [14] = Volume of distribution at steady state in mouse at 2 mg/kg, iv; type: ADME, organism-based; set-up: dose 2 mg/kg, route intravenous; details: in vivo, read-out: Vdss
# [15] = Volume of distribution at steady state in dog at 1 mg/kg, iv; type: ADME, organism-based, Canis lupus familiaris; set-up: dose 1 mg/kg, route intravenous; details: in vivo, read-out: Vdss
# [16] = Oral bioavailability in Lewis rat at 10 mg/kg; type: ADME, organism-based; details: in vivo
# [17] = Oral bioavailability in mouse at 3 mg/kg; type: ADME, organism-based; details: in vivo
# [18] = Oral bioavailability in dog at 5 mg/kg; type: ADME, organism-based, Canis lupus familiaris; details: in vivo
# [19] = AUC in Sprague-Dawley rat liver at 2 mg/kg, iv after 8 hrs; type: ADME, organism-based; set-up: time < 8 hr, dose 2 mg/kg, route intravenous
# [20] = AUC in SJL mouse plasma at 8 mg/kg, iv after 8 hrs; type: ADME, organism-based; set-up: time < 8 hr, dose 8 mg/kg, route intravenous
# [21] = AUC in SJL mouse liver at 8 mg/kg, iv after 8 hrs; type: ADME, organism-based; set-up: time < 8 hr, dose 8 mg/kg, route intravenous
# [22] = AUC in SJL mouse intestine at 8 mg/kg, iv after 8 hrs; type: ADME, organism-based; set-up: time < 8 hr, dose 8 mg/kg, route intravenous
# [23] = system: Mus musculus; assay: Reduction in TNBS-induced colitis in intrarectally dosed mouse […] model assessed as decrease of body weight loss administered 1 day before TNBS challenge twice daily for 4 days; type: functional, organism-based
# [24] = system: Mus musculus; assay: Reduction in TNBS-induced colitis in intrarectally dosed mouse […] model assessed as decrease of colon length administered 1 day before TNBS challenge twice daily for 4 days; type: functional, organism-based
# [25] = system: Mus musculus; assay: Reduction in TNBS-induced colitis in mouse […] model assessed as decrease of colon length at 10 mg/kg, administered intrarectally 1 day before TNBS challenge twice daily for 4 days; type: functional, organism-based; set-up: dose 10 mg/kg
# [26] = system: Mus musculus; assay: Reduction in TNBS-induced colitis in mouse […] model assessed as decrease of body weight at 3 mg/kg, administered intrarectally 1 day before TNBS challenge twice daily for 4 days; type: functional; set-up: scale not given: the % may be the effect or the level left
# [27] = system: PBMC; assay: Antiinflammatory activity in human PBMC assessed as inhibition of LPS-induced TNFalpha release treated for 5 mins before LPS challenge measured after 4 hrs by ELISA; type: functional, cell-based; details: Homo sapiens, PBMC
# [28] = system: Salmonella typhimurium; assay: Induction of mutagenicity in Salmonella Typhimurium by Ames test; type: toxicity, organism-based; details: salmonella enterica subsp. enterica serovar typhimurium
# [29] = molecular target: hERG (KCNH2) (Homo sapiens, UniProt Q12809); assay: Inhibition of human ERG at 30 uM by patch clamp assay
# [30] = molecular target: Cytochrome P450 1A2 (Homo sapiens, UniProt P05177); assay: Inhibition of CYP1A2; type: ADME
# [31] = molecular target: Cytochrome P450 2C19 (Homo sapiens, UniProt P33261); assay: Inhibition of CYP2C19; type: ADME
# [32] = molecular target: Cytochrome P450 3A4 (Homo sapiens, UniProt P08684); assay: Inhibition of CYP3A4; type: ADME
# [33] = molecular target: Cytochrome P450 2C9 (Homo sapiens, UniProt P11712); assay: Inhibition of CYP2C9; type: ADME
# [34] = Dissociation constant, pKa of the compound; type: physicochemical
# [35] = Lipophilicity, log P of the compound by HPLC analysis; type: physicochemical
# [36] = molecular target: Inhibitor of nuclear factor kappa-B kinase subunit beta (Homo sapiens) (UniProt O14920); assay: Inhibition of human IKK2 at 10 uM
# [37] = molecular target: Inhibitor of nuclear factor kappa-B kinase subunit alpha (Homo sapiens) (UniProt O15111); assay: Inhibition of IKK1 at 10 uM
# [38] = molecular target: T1, Protein-tyrosine kinase 6 (Homo sapiens, UniProt Q13882); assay: Inhibition of BRK at 10 uM
# [39] = molecular target: T2, Vascular endothelial growth factor receptor 3 (Homo sapiens, UniProt P35916); assay: Inhibition of FLT4 at 10 uM
# T2 sequence (P35916 whole entry): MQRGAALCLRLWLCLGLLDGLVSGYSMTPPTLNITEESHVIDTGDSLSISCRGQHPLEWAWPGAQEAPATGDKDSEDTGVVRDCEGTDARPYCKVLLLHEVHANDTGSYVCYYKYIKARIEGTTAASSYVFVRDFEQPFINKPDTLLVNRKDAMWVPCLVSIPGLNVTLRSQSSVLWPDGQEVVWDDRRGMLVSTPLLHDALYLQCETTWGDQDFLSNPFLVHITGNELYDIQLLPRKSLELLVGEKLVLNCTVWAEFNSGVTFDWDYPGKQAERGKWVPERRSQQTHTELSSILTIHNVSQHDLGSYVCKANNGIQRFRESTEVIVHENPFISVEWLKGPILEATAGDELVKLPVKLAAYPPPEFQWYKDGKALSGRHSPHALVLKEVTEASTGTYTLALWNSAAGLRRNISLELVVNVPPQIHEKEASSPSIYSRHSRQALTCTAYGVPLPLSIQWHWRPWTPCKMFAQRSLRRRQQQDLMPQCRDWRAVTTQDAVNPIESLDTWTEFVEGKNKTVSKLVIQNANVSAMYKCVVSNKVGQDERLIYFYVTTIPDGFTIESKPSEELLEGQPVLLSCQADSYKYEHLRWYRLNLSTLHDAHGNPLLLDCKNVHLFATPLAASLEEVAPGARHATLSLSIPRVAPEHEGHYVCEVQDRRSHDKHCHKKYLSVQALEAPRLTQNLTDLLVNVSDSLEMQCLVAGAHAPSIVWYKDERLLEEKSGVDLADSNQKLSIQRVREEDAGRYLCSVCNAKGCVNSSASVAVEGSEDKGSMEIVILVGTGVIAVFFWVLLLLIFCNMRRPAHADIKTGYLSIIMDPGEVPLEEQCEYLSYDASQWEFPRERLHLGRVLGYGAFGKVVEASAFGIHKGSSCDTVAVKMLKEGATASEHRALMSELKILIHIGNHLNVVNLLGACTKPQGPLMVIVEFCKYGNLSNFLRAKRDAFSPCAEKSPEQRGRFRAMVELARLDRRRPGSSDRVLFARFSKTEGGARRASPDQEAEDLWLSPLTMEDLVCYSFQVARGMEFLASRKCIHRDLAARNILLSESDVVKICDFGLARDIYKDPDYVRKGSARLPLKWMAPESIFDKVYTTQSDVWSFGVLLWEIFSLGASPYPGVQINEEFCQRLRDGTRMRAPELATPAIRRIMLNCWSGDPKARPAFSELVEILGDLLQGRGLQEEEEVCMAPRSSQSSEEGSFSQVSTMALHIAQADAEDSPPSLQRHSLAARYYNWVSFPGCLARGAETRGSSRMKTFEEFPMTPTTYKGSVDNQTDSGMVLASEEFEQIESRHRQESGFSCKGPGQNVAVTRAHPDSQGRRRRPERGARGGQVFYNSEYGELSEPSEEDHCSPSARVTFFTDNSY
# [40] = molecular target: T3, Proto-oncogene tyrosine-protein kinase receptor Ret (Homo sapiens, UniProt P07949); assay: Inhibition of RET at 10 uM
# T3 sequence (P07949 whole entry): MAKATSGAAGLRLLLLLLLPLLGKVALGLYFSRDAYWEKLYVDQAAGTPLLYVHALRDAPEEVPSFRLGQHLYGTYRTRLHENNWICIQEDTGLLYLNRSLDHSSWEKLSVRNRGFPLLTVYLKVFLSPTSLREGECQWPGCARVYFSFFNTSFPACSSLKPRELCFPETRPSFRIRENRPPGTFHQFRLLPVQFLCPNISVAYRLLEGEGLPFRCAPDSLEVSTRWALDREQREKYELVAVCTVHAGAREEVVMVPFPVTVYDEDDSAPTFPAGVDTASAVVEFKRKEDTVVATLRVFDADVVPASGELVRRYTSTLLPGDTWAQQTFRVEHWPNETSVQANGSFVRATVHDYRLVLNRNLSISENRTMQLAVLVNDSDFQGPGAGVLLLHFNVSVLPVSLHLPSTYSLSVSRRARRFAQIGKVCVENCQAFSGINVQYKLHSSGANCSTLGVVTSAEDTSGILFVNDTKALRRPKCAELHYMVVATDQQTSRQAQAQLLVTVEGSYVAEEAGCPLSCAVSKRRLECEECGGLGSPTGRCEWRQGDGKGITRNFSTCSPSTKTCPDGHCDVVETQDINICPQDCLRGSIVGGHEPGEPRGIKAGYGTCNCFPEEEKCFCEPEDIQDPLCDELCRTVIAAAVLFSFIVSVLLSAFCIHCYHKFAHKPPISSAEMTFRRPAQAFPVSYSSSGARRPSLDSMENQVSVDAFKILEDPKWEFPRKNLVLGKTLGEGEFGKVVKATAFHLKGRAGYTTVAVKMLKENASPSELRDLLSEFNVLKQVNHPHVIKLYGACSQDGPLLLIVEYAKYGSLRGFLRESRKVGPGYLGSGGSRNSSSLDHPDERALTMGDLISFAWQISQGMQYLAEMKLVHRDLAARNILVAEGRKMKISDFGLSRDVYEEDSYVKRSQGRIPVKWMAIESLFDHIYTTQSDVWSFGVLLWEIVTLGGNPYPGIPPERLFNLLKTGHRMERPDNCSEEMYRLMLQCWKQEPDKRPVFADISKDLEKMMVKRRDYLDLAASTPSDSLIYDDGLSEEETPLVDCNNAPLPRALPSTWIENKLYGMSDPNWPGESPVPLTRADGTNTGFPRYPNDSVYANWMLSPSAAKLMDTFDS
# [41] = molecular target: Ephrin type-A receptor 1 (Homo sapiens) (UniProt P21709); assay: Inhibition of EPHA1 at 10 uM
# [42] = molecular target: Ephrin type-B receptor 1 (Homo sapiens) (UniProt P54762); assay: Inhibition of EphB1 at 10 uM
# Chain of Ephrin type-B receptor 1 (Homo sapiens) (P54762 whole entry): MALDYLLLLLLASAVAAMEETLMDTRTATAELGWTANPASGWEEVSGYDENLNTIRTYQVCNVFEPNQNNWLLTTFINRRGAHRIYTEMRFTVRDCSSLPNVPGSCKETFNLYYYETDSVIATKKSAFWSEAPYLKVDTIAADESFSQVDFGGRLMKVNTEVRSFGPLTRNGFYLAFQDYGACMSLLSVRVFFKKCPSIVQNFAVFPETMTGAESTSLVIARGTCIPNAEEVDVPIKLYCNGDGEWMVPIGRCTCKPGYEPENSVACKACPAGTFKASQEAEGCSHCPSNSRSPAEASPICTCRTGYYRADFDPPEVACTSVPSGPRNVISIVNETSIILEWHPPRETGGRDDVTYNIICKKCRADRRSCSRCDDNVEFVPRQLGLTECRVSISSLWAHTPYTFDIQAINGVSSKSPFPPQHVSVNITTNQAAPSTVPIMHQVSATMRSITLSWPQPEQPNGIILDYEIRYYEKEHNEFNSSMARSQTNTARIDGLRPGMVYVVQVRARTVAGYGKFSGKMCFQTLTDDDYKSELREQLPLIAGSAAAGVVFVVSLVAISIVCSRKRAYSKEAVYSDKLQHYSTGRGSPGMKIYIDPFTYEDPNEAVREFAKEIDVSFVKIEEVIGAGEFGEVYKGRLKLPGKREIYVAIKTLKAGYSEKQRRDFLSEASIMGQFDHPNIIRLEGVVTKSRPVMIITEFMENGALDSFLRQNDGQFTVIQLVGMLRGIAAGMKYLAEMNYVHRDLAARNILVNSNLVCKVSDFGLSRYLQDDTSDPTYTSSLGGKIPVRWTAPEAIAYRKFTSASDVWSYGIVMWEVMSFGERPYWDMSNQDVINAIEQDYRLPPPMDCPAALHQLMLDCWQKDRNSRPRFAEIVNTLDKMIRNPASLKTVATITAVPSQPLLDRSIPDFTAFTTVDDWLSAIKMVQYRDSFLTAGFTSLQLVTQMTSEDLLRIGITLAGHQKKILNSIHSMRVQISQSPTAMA
# [43] = system: Mus musculus; assay: Reduction in TNBS-induced colitis in mouse […] model assessed as decrease of colon length at 3 mg/kg, administered intrarectally 1 day before TNBS challenge twice daily for 4 days; type: functional
# [44] = system: Mus musculus; assay: Reduction in TNBS-induced colitis in mouse […] model assessed as decrease in inflammation histological score at 10 mg/kg administered intrarectally 1 day before TNBS challenge twice daily for 4 days by hematoxylin-eosin staining relative to control; type: functional, organism-based; set-up: dose 10 mg/kg
# [45] = molecular target: Inhibitor of nuclear factor kappa-B kinase subunit alpha (Homo sapiens, UniProt O15111); assay: Inhibition of IKK1
# [46] = molecular target: T1, Protein-tyrosine kinase 6; assay: Inhibition of BRK
# [47] = molecular target: T2, Vascular endothelial growth factor receptor 3; assay: Inhibition of FLT4
# [48] = molecular target: T3, Proto-oncogene tyrosine-protein kinase receptor Ret; assay: Inhibition of RET
# [49] = molecular target: Ephrin type-A receptor 1 (Homo sapiens, UniProt P21709); assay: Inhibition of EPHA1
# [50] = molecular target: Ephrin type-B receptor 1 (Homo sapiens, UniProt P54762); assay: Inhibition of EphB1
# Chain of Ephrin type-B receptor 1 (P54762 whole entry): as above
# [51] = molecular target: T4, Vascular endothelial growth factor receptor 2 (Homo sapiens, UniProt P35968); assay: Inhibition of KDR
# T4 sequence (P35968 whole entry): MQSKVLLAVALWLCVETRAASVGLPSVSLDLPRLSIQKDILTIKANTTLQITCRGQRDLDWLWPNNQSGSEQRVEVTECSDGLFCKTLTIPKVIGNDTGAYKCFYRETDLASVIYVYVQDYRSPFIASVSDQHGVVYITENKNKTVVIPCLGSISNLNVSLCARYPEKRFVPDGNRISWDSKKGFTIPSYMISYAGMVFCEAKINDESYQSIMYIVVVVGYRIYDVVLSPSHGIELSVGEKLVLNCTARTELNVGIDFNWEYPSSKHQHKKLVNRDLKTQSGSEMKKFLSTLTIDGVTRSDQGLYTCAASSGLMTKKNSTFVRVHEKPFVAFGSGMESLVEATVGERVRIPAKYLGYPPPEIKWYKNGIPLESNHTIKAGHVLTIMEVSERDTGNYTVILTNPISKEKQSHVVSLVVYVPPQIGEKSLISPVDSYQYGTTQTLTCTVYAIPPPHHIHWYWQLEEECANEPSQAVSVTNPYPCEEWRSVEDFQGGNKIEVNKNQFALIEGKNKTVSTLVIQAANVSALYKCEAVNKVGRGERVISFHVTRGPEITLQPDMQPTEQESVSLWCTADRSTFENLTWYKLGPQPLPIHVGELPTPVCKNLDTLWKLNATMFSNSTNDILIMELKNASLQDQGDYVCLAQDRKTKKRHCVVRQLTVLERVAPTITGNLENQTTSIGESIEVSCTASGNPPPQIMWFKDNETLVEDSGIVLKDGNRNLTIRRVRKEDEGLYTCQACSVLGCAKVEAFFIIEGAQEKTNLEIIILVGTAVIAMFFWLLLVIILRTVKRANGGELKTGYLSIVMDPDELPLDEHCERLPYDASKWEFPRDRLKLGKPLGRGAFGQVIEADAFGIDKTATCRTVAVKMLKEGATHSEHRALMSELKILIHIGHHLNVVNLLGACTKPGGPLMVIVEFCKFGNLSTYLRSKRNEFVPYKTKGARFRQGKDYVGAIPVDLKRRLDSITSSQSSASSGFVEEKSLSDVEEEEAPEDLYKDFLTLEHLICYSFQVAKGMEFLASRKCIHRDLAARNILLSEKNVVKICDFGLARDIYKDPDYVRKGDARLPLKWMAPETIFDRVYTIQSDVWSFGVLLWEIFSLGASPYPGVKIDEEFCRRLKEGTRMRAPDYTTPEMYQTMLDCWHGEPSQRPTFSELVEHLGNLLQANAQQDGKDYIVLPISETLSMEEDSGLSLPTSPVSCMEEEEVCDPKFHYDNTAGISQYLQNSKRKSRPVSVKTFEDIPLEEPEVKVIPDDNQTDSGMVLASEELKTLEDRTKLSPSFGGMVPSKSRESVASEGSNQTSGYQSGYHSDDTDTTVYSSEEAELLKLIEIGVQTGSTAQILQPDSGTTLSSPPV
# [52] = molecular target: T4, Vascular endothelial growth factor receptor 2; details: 10 uM
# Description: Inhibition of KDR at 10 uM
smiles,measurement,setting,value
CNc1nc2[nH]c(-c3cccc(CNC(=O)COC)n3)cc2c2c1ncn2C,IC50,[1],1700 nM
same,fraction unbound,[2],0.074
same,fraction unbound,[3],0.084
same,fraction unbound,[4],0.069
same,Cmax,[5],17.6 µM
same,Cmax,[6],10.3 µM
same,AUC,[7],50 µM·h
same,half-life,[8],3.7 h
same,half-life,[9],0.66 h
same,half-life,[10],3.3 h
same,clearance,[11],4.5 mL/min/kg
same,clearance,[12],3.1 mL/min/kg
same,Vd,[13],0.5 L/kg
same,Vd,[14],1.8 L/kg
same,Vd,[15],0.6 L/kg
same,bioavailability,[16],90%
same,bioavailability,[17],79%
same,bioavailability,[18],72%
same,AUC at 8 h,[19],16 µM·h
same,AUC at 8 h,[20],18 µM·h
same,AUC at 8 h,[21],81 µM·h
same,AUC at 8 h,[22],1170 µM·h
same,Activity,[23],Dose-dependent effect
same,Activity,[24],Dose-dependent effect
same,Activity,[25],Active
same,Activity,[26],10%
same,IC50,[27],150 nM
same,Activity,[28],Non-toxic
same,inhibition at 30 µM,[29],18%
same,IC50,[30],> 40000 nM
same,IC50,[31],> 40000 nM
same,IC50,[32],> 40000 nM
same,IC50,[33],25000 nM
same,pKa,[34],2.5
same,logP,[35],2
same,inhibition,[36],> 75%
same,inhibition,[37],> 75%
same,inhibition,[38],> 75%
same,inhibition,[39],> 75%
same,inhibition,[40],> 75%
same,inhibition,[41],> 75%
same,inhibition,[42],> 75%
same,Activity,[43],1 cm
same,Activity,[44],Active
same,IC50,[45],4960 nM
same,IC50,[46],310 nM
same,IC50,[47],360 nM
same,IC50,[48],614 nM
same,IC50,[49],686 nM
same,IC50,[50],1110 nM
same,IC50,[51],1490 nM
same,inhibition,[52],> 75%
